Molecules are shown by their SMILES.

By IC50 is commonly meant the point on the concentration scale where inhibition reaches its midpoint. High values mean weaker potency, low ones greater potency. What is called Log D is the decadic logarithm of the distribution of all forms, ionised or not, between an organic phase and buffer at a given pH. High values mean a more lipophilic compound, low ones a more hydrophilic compound. A word on the logD: it is the decadic logarithm of the distribution of all forms, ionised or not, between an organic phase and buffer at a given pH. Higher therefore signals a more lipophilic compound.

For data set [1], the target named is T1, rTRPM8 (Rattus norvegicus, UniProt Q8R455).
T1 construct: expressed in transfected cells
In words: Whole-cell patch-clamp, HEK293-rTRPM8 cells. In kind it is cell-based. The method, then: To confirm the antagonistic activity, electrophysiology (patch-clamp) studies were performed on HEK293 cells expressing the rTRPM8 channel. […] Then, using a holding voltage of −60 mV, different concentrations of RGM8-51 were used to establish the concentration/response curve for rTRPM8 current blockade.
Whole-cell patch-clamp recordings from HEK293-rTRPM8 cells were carried out 2 days after seeding on 12 mm Ø glass coverslips treated with poly-L-lysine solution (Sigma Aldrich, Spain); the intracellular pipette solution contained (in mM) 150 NaCl, 5 EGTA, 3 MgCl2 and 10 HEPES, adjusted to pH 7.2 with NaOH, and the extracellular solution contained (in mM) 150 NaCl, 6 CsCl, 1.5 CaCl2, 1 MgCl2, 10 D-glucose and 10 HEPES, adjusted to pH 7.4 with NaOH. The TRPM8 activity was measured by the application of two pulses of 100 μM menthol in a time interval of 2 min and a 30 s perfusion of the different compound concentrations before the second menthol pulse.
Data were sampled at 10 kHz (EPC10 amplifier with PatchMaster 2.53 software, HEKA Electronics, Lambrecht, Germany) and low-pass filtered at 3 kHz for analysis (PatchMaster 2.53 and GraphPad Prism 6.0, Graphpad Software, San Diego, CA, USA). The series resistance was <10 MΩ and to minimize voltage errors was compensated by 60–80%. […] Cell capacitance was measured and used to estimate the current density (J, pA/pF).
Data analysis: For the whole-cell patch-clamp experiments, results are expressed as the percentage of remaining activation of the TRPM8 channel. This is calculated by normalizing the ratio (p2/p1) of testing conditions to the ratio (p2/p1) of the control condition. […] All data are expressed as the mean ± standard error of the mean (SEM) (n = 5–8). In the current-clamp experiments, the change in membrane potential is expressed as the difference between the resting membrane potential and the membrane potential after the addition of a stimuli. Data were analyzed as previously described (GraphPad 6.0, one-way ANOVA followed by Bonferroni multiple comparisons test, and ROUT method, Q = 10%).

The nature of data set [2]: Partition coefficient (Log D). In kind it is physicochemical. The method, then: These studies were subcontracted to Eurofins-CEREP or Eurofins-PANLABS. Briefly, agonists and antagonist assays were performed in cell cultures overexpressing the corresponding channel (CHO: TRPV1 and TRPA1; HEK293: TRPV3 and ASIC3). In vitro pharmacology, cellular channel functional assays: the compound was prepared in assay buffer to the final concentration, 10 μM. The compound wells, reference agonist and background vehicle controls were prepared in DMSO at 0.3%. […] The reference agonist for each Ion Channel was included at Emax (the concentration where the reference agonist elicited a maximal response). The agonist assay was conducted on fluorimeter instruments where the test compound, vehicle controls, and reference agonist were added to the assay plate after a fluorescence baseline was established. […] For the antagonist assay, the compound was pre-incubated for five minutes at room temperature, and then challenged with the EC80 concentration of the reference agonist after establishment of a fluorescence baseline. […] Binding assay results are expressed as a percent of control specific binding. […] Aqueous solubility (μM) was determined by comparing the peak area of the principal peak in a calibration standard (200 μM) containing organic solvent (methanol/water, 60/40, v/v) with the peak area of the corresponding peak in a buffer sample. […] Permeability was measured in CACO-2 monolayers.

T1 sequence (Q8R455 whole entry): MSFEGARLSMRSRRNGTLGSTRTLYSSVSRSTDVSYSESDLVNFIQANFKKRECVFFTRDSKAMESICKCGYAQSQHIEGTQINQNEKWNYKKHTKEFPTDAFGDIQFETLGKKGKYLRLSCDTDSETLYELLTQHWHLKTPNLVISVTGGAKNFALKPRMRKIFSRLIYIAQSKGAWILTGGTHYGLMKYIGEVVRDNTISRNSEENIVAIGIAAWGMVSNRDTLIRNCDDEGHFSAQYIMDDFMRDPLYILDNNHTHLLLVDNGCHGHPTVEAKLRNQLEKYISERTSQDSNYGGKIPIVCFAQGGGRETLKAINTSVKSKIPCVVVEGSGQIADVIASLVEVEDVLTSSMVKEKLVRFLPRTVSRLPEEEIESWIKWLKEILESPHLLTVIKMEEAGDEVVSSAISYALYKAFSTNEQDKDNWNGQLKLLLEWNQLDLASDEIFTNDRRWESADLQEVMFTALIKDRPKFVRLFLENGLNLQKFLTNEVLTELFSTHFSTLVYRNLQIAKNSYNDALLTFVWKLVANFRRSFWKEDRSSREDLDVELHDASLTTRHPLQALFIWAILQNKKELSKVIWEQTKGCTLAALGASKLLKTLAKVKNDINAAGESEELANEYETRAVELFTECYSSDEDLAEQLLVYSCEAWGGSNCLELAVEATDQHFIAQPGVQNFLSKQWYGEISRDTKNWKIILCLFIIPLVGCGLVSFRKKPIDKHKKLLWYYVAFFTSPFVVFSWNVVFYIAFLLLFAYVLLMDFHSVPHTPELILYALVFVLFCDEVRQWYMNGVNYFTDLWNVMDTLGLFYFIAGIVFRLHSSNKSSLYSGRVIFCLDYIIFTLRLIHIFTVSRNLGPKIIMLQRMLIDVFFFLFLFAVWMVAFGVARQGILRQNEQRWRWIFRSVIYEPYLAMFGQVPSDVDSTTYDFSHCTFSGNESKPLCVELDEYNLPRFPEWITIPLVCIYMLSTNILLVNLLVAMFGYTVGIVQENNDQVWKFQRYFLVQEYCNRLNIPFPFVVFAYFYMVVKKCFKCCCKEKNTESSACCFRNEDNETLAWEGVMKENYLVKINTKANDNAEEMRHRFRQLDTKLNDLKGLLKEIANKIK

Take `C[C@@H]1C(=O)N(C[C@H](Cc2ccccc2)N(Cc2ccccc2)Cc2ccccc2)[C@]1(Cc1ccccc1)C(=O)OC(C)(C)C` [RGM8-51, 4(S)-Benzyl-3S-methyl-4-(tert-butoxy)carbonyl-1-[(2′S-dibenzylamino-3′-phenyl)prop-1′-yl]-2-oxoazetidine]: the “menthol-evoked outward rectifying current” value in data set [1] (10 μM compound, 100 µM menthol) was “clearly reduced”. In data set [1] (HEK293-rTRPM8, 100 μM menthol, holding voltage −60 mV), this compound displayed an IC50 of 970 ± 1560 nM. Besides, the pH-dependent lipophilicity (Log D) in data set [2] is on record as 5.7. The compound also showed a logD in data set [2] (organic phase/aqueous buffer partition) of 5.77.

(Values after publication PMC8910920 (International Journal of Molecular Sciences, 2022).)
